In the supplement of paper PMC13380429:

Experiments:
Conditions in all cases: 72 h
Caco-2 [1] = test: drug sensitivity score (DSS) for viability; higher = more toxic; extreme values may be limits of the assay
Calu-3 [2] = test: as above
HepG2 [3] = test: as above
U2OS [4] = test: as above
Caco-2 [5] = test: relative viability EC50 (midpoint between 100% and the lowest measured viability); higher = less toxic
Calu-3 [6] = test: as above
HepG2 [7] = test: as above
U2OS [8] = test: as above
Caco-2 [9] = test: cell viability relative to DMSO; higher = less toxic
Calu-3 [10] = test: as above
HepG2 [11] = test: as above
U2OS [12] = test: as above
Vero E6 [13] = test: drug sensitivity score (DSS) for viability; higher = more toxic; extreme values may be limits of the assay
Vero E6 [14] = test: relative viability EC50 (midpoint between 100% and the lowest measured viability); higher = less toxic
Vero E6 [15] = test: cell viability relative to DMSO; higher = less toxic

| Structure (SMILES) | drug sensitivity score (Caco-2 [1]) | drug sensitivity score (Calu-3 [2]) | drug sensitivity score (HepG2 [3]) | drug sensitivity score (U2OS [4]) | relative viability EC50 (Caco-2 [5]) | relative viability EC50 (Calu-3 [6]) | relative viability EC50 (HepG2 [7]) | relative viability EC50 (U2OS [8]) | cell viability (Caco-2 [9]; 1 nM) | cell viability (Caco-2 [9]; 10 nM) | cell viability (Caco-2 [9]; 100 nM) | cell viability (Caco-2 [9]; 1000 nM) | cell viability (Caco-2 [9]; 10000 nM) | cell viability (Calu-3 [10]; 1 nM) | cell viability (Calu-3 [10]; 10 nM) | cell viability (Calu-3 [10]; 100 nM) | cell viability (Calu-3 [10]; 1000 nM) | cell viability (Calu-3 [10]; 10000 nM) | cell viability (HepG2 [11]; 1 nM) | cell viability (HepG2 [11]; 10 nM) | cell viability (HepG2 [11]; 100 nM) | cell viability (HepG2 [11]; 1000 nM) | cell viability (HepG2 [11]; 10000 nM) | cell viability (U2OS [12]; 1 nM) | cell viability (U2OS [12]; 10 nM) | cell viability (U2OS [12]; 100 nM) | cell viability (U2OS [12]; 1000 nM) | cell viability (U2OS [12]; 10000 nM) | drug sensitivity score (Vero E6 [13]) | relative viability EC50 (Vero E6 [14]) | cell viability (Vero E6 [15]; 1 nM) | cell viability (Vero E6 [15]; 10 nM) | cell viability (Vero E6 [15]; 100 nM) | cell viability (Vero E6 [15]; 1000 nM) | cell viability (Vero E6 [15]; 10000 nM) |
| --- | --- | --- | --- | --- | --- | --- | --- | --- | --- | --- | --- | --- | --- | --- | --- | --- | --- | --- | --- | --- | --- | --- | --- | --- | --- | --- | --- | --- | --- | --- | --- | --- | --- | --- | --- |
| N[C@@H]1CCCCN(c2c(F)cc3c(=O)c(C(=O)O)cn(C4CC4)c3c2Cl)C1 [besifloxacin] | 0 | 0 | 0 | 0 | > 10 µM | > 10 µM | > 10 µM | > 10 µM | 97.1% | 98.4% | 100% | 104% | 93.5% | 100% | 97.3% | 100% | 103% | 107% | 102% | 92.2% | 108% | 113% | 97.8% | 98.2% | 99.5% | 95.6% | 102% | 98.9% | – | – | – | – | – | – | – |
| COc1cc2ncnc(Nc3ccc(O)c(Br)c3)c2cc1OC [WHI-P154] | 3.4 | 7.2 | 2.7 | 0.4 | – | 1.29 µM | – | > 10 µM | 95.8% | 96.6% | 89.8% | 83.6% | 68.8% | 106% | 103% | 94.3% | 72.6% | 28.6% | 108% | 102% | 101% | 89.7% | 70% | 103% | 101% | 99.5% | 93.1% | 86.3% | 8.2 | 0.642 µM | 101% | 98.4% | 82.8% | 68% | 35.6% |
| Cc1nnc2ccc(-c3cccc(C(F)(F)F)c3)nn12 | 0.2 | 0 | 0 | 0 | > 10 µM | > 10 µM | > 10 µM | > 10 µM | 92.5% | 97.3% | 107% | 97.6% | 87.9% | 99.5% | 111% | 95% | 101% | 91.2% | 107% | 102% | 107% | 90.4% | 108% | 99.1% | 98.8% | 94.3% | 99.4% | 94.5% | – | – | – | – | – | – | – |
| CC1=C(/C=C/C(C)=C/C=C/C(C)=C/C=O)C(C)(C)CCC1 [retinaldehyde] | 0 | 0.6 | – | 0 | > 10 µM | > 10 µM | – | > 10 µM | 100% | 104% | 89.5% | 97.8% | 90.4% | 98.9% | 108% | 104% | 88.8% | 87.4% | – | – | – | – | – | 104% | 107% | 101% | 99.4% | 92.9% | 0 | > 10 µM | 99.2% | 95.1% | 95.2% | 95.3% | 99.9% |
| COc1ccc2c(c1)c(CC(=O)O)c(C)n2C(=O)c1ccc(Cl)cc1 [indomethacin] | 0 | 1 | 0 | 0 | > 10 µM | > 10 µM | > 10 µM | > 10 µM | 95.6% | 98.6% | 101% | 98.4% | 94.6% | 99.2% | 96.4% | 90.7% | 84.3% | 91.8% | 105% | 100% | 108% | 94.7% | 95% | 98.9% | 102% | 97.8% | 101% | 99.7% | – | – | – | – | – | – | – |
| O=c1[nH]c(=O)n([C@H]2C[C@H](O)[C@@H](CO)O2)cc1I [idoxuridine] | 0 | 0 | 2.8 | 0 | > 10 µM | > 10 µM | – | > 10 µM | 101% | 101% | 94% | 105% | 95.9% | 106% | 96.6% | 110% | 93% | 96.5% | 101% | 104% | 95.8% | 94% | 62.5% | 98.4% | 103% | 101% | 106% | 99.6% | 0.3 | > 10 µM | 99.1% | 104% | 97.8% | 99.8% | 84.5% |
| C[n+]1ccc(C(=O)NCc2ccccc2)cc1 [enisamium-iodide] | 0 | 0 | 2.8 | 0 | > 10 µM | > 10 µM | > 10 µM | > 10 µM | 98.8% | 103% | 87.7% | 94.5% | 99.1% | 96.5% | 100% | 91% | 108% | 102% | 88.7% | 96.3% | 99.7% | 79.7% | 81.7% | 104% | 103% | 98.9% | 103% | 103% | – | – | – | – | – | – | – |
| N#CCC(=O)c1ccccc1 | 0 | 0 | 0 | 0 | > 10 µM | > 10 µM | > 10 µM | > 10 µM | 106% | 105% | 89.2% | 98.2% | 102% | 103% | 108% | 96.3% | 100% | 94.7% | 94.9% | 103% | 101% | 106% | 96.2% | 100% | 99.9% | 100% | 98.3% | 104% | – | – | – | – | – | – | – |
| C[C@@H]1C[C@H]2[C@@H]3CCC4=CC(=O)C=C[C@]4(C)[C@@]3(F)[C@@H](O)C[C@]2(C)[C@@]1(O)C(=O)COP(=O)(O)O [DEXAMETHASONE SODIUM PHOSPHATE] | 0 | 0 | 0 | 0 | > 10 µM | > 10 µM | > 10 µM | > 10 µM | 95.9% | 88% | 99.7% | 96.2% | 97.5% | 106% | 107% | 89.9% | 105% | 90% | 111% | 108% | 100% | 97.8% | 93.6% | 99.8% | 98.8% | 97.7% | 95.8% | 95.7% | – | – | – | – | – | – | – |
| O=C(CNC(=O)c1ccc(Cl)cc1)NO [benurestat] | 0 | 0 | 0 | 0 | > 10 µM | > 10 µM | > 10 µM | > 10 µM | 98.5% | 98.5% | 97.4% | 98.5% | 98.1% | 107% | 104% | 103% | 103% | 99.3% | 110% | 108% | 104% | 101% | 95.8% | 96.8% | 104% | 97.5% | 104% | 95.1% | – | – | – | – | – | – | – |
| CC(C)C[C@H](NC(=O)CNC(=O)[C@H](Cc1ccc(O)cc1)NC(=O)[C@H](CO)NC(=O)[C@H](Cc1c[nH]c2ccccc12)NC(=O)[C@H](Cc1cnc[nH]1)NC(=O)[C@@H]1CCC(=O)N1)C(=O)N[C@@H](CCCNC(=N)N)C(=O)N1CCC[C@H]1C(=O)NCC(N)=O [gonadorelin] | 0 | 0 | 0 | 0 | > 10 µM | > 10 µM | > 10 µM | > 10 µM | 106% | 96% | 100% | 99.7% | 100% | 94.7% | 98.8% | 92.2% | 86.9% | 97.5% | 108% | 86.8% | 102% | 101% | 96.2% | 97.4% | 100% | 98.4% | 98% | 97.7% | – | – | – | – | – | – | – |
| [I-].[K+] [potassium-iodide] | – | 0 | – | – | – | > 10 µM | – | – | – | – | – | – | – | 99.9% | 111% | 96.2% | 102% | 95.1% | – | – | – | – | – | – | – | – | – | – | 0 | > 10 µM | 102% | 99.7% | 103% | 101% | 106% |
| CC(=O)N[C@H]1[C@H]([C@H](O)[C@H](O)CO)OC(O)(C(=O)O)C[C@@H]1O (mixture of isomers) [aceneuramic-acid] | 0 | 0 | 2.5 | – | > 10 µM | > 10 µM | – | – | 106% | 99% | 85.8% | 99.3% | 93.6% | 113% | 99.6% | 99.2% | 97.1% | 90.4% | 94.6% | 90.1% | 99.9% | 67.9% | 86.1% | – | – | – | – | – | 0 | > 10 µM | 102% | 97.4% | 101% | 93.7% | 98% |
